Results: ChEMBL document CHEMBL4507305, “Data for DCP probe TP-024” (2021)

What was measured:
[1] = target: Serine/threonine-protein kinase 3 (Homo sapiens) (UniProt Q13188); settings: Compound concentration 1000.0 nM
[2] = target: Ribosomal protein S6 kinase alpha-5 (Homo sapiens) (UniProt O75582); settings: Compound concentration 1000.0 nM
[3] = target: Cyclin-dependent kinase 4 (Homo sapiens) (UniProt P11802); settings: Compound concentration 1000.0 nM
[4] = target: Mitogen-activated protein kinase kinase kinase kinase 4 (Homo sapiens) (UniProt O95819); settings: Compound concentration 1000.0 nM
Sequence of Mitogen-activated protein kinase kinase kinase kinase 4 (Homo sapiens) (O95819 2-1239 limits assumed): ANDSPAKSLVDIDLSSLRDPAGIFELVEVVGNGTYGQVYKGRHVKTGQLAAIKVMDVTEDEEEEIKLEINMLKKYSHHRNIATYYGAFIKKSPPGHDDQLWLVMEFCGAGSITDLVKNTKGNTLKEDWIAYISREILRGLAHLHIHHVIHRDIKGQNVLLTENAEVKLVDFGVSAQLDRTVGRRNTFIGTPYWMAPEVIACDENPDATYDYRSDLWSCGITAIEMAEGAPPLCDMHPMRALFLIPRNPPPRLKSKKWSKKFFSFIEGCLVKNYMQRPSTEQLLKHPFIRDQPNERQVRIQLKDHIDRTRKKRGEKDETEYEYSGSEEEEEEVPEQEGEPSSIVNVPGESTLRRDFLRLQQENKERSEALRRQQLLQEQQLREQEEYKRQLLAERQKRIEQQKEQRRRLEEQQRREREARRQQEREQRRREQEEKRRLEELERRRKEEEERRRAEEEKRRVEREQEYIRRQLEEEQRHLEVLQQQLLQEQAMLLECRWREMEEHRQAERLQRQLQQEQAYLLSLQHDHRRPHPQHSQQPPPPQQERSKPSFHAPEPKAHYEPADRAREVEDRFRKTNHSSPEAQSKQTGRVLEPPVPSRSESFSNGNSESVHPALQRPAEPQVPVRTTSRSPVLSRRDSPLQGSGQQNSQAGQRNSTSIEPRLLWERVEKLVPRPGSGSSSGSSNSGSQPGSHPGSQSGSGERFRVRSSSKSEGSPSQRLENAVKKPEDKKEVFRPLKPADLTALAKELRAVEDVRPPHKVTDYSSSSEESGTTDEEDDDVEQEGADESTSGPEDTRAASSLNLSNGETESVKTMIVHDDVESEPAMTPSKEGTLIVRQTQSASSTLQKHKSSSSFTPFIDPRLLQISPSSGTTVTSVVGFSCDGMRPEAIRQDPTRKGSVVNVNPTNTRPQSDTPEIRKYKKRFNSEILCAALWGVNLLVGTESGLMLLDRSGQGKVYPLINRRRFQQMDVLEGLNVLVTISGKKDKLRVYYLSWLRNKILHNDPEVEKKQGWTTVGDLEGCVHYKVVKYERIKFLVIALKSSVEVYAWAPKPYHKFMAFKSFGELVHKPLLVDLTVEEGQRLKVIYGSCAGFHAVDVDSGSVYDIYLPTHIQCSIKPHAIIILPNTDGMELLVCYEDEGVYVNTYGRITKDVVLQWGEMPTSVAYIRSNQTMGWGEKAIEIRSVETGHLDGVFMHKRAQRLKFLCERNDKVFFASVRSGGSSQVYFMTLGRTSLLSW

[5] = target: Wee1-like protein kinase (Homo sapiens) (UniProt P30291); settings: Compound concentration 1000.0 nM
[6] = target: Protein kinase C epsilon type (Homo sapiens) (UniProt Q02156); settings: Compound concentration 1000.0 nM
[7] = tested on: Tyrosine-protein kinase ABL1 (Homo sapiens), P00519 [T315I]; settings: Compound concentration 1000.0 nM
[8] = target: Cyclin-dependent kinase 11A (Homo sapiens) (UniProt Q9UQ88); settings: Compound concentration 1000.0 nM
[9] = target: Serine/threonine-protein kinase Chk2 (Homo sapiens) (UniProt O96017); settings: Compound concentration 1000.0 nM
[10] = target: Rho-associated protein kinase 2 (Homo sapiens) (UniProt O75116); settings: Compound concentration 1000.0 nM
[11] = target: Calcium/calmodulin-dependent protein kinase type II subunit beta (Homo sapiens) (UniProt Q13554); settings: Compound concentration 1000.0 nM
[12] = target: Calcium/calmodulin-dependent protein kinase kinase 1 (Homo sapiens) (UniProt Q8N5S9); settings: Compound concentration 1000.0 nM
[13] = target: Dual specificity mitogen-activated protein kinase kinase 6 (Homo sapiens) (UniProt P52564); settings: Compound concentration 1000.0 nM
Sequence of Dual specificity mitogen-activated protein kinase kinase 6 (Homo sapiens) (P52564 whole entry): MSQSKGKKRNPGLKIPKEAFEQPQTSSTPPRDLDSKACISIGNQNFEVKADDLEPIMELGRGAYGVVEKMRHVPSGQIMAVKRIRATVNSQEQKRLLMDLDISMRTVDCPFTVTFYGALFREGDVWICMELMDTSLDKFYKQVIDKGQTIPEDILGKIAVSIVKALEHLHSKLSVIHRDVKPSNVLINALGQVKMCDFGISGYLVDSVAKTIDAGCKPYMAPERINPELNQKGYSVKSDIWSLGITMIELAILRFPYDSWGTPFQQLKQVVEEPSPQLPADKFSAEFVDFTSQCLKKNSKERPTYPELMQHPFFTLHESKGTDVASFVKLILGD

[14] = target: GABA-A receptor; anion channel (Rattus norvegicus) (UniProt O09028+P15431+P18506+P18508+P19969+P20236+P23574+P23576+P28471+P28473+P30191+P62813+P63079+P63138+Q91ZM7+Q9ES14); settings: Compound concentration 10.0 uM
[15] = target: Myosin light chain kinase, smooth muscle (Homo sapiens) (UniProt Q15746); settings: Compound concentration 1000.0 nM
[16] = target: Mu-type opioid receptor (Homo sapiens) (UniProt P35372); settings: Compound concentration 10.0 uM
[17] = target: Mitogen-activated protein kinase kinase kinase 1 (Homo sapiens) (UniProt Q13233); settings: Compound concentration 1000.0 nM
[18] = target: Alpha-1D adrenergic receptor (Homo sapiens) (UniProt P25100); settings: Compound concentration 10.0 uM
[19] = target: Interferon-induced, double-stranded RNA-activated protein kinase (Homo sapiens) (UniProt P19525); settings: Compound concentration 1000.0 nM
[20] = target: Phosphatidylinositol 4-kinase beta (Homo sapiens) (UniProt Q9UBF8); settings: Compound concentration 1000.0 nM
[21] = target: Serine/threonine-protein kinase PknB (Mycobacterium tuberculosis) (UniProt P9WI81); settings: Compound concentration 1000.0 nM
[22] = tested on: Mast/stem cell growth factor receptor Kit (Homo sapiens), P10721 [A829P]; settings: Compound concentration 1000.0 nM
[23] = target: Serine/threonine-protein kinase B-raf (Homo sapiens) (UniProt P15056); settings: Compound concentration 1000.0 nM
Sequence of Serine/threonine-protein kinase B-raf (Homo sapiens) (P15056 whole entry): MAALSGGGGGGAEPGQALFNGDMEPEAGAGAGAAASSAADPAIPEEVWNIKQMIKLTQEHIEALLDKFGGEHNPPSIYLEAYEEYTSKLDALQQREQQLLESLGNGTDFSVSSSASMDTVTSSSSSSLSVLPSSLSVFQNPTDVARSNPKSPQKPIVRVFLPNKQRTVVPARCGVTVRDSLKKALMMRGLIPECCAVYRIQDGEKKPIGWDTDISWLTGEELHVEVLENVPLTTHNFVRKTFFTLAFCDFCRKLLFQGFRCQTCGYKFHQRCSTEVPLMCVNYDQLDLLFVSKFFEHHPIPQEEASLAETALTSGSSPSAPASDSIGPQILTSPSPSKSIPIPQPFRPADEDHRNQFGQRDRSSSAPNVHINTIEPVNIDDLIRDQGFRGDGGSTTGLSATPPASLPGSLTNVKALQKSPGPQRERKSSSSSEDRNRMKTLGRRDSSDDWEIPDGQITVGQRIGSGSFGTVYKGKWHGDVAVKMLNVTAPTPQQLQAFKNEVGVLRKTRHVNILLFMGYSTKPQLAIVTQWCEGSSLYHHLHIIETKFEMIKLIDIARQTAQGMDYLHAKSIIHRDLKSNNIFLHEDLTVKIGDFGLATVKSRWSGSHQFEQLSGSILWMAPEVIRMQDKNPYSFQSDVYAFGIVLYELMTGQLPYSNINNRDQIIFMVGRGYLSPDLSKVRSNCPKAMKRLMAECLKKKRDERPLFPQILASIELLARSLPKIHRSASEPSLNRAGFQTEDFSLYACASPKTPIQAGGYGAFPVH

[24] = target: Testis-specific serine/threonine-protein kinase 1 (Homo sapiens) (UniProt Q9BXA7); settings: Compound concentration 1000.0 nM
Sequence of Testis-specific serine/threonine-protein kinase 1 (Homo sapiens) (Q9BXA7 whole entry): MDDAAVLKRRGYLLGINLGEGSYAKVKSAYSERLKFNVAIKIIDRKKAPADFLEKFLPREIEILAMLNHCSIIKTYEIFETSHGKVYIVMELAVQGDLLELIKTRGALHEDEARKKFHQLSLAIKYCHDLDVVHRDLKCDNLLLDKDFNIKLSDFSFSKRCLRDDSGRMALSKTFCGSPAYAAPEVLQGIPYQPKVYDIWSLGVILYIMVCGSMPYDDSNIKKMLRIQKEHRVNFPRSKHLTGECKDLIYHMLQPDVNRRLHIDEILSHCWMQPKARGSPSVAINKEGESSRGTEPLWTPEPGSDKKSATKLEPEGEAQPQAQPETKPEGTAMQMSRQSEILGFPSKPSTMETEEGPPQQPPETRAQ

[25] = target: Macrophage colony-stimulating factor 1 receptor (Homo sapiens) (UniProt P07333); settings: Compound concentration 1000.0 nM
[26] = target: LIM domain kinase 2 (Homo sapiens) (UniProt P53671); settings: Compound concentration 1000.0 nM
[27] = tested on: Proto-oncogene tyrosine-protein kinase receptor Ret (Homo sapiens), P07949 [V804M]; settings: Compound concentration 1000.0 nM
[28] = tested on: Mast/stem cell growth factor receptor Kit (Homo sapiens), P10721 [D816H]; settings: Compound concentration 1000.0 nM
[29] = target: Mitogen-activated protein kinase kinase kinase 19 (Homo sapiens) (UniProt Q56UN5); settings: Compound concentration 1000.0 nM
[30] = tested on: Proto-oncogene tyrosine-protein kinase receptor Ret (Homo sapiens), P07949 [M918T]; settings: Compound concentration 1000.0 nM
[31] = target: SRSF protein kinase 1 (Homo sapiens) (UniProt Q96SB4); settings: Compound concentration 1000.0 nM
[32] = target: Death-associated protein kinase 3 (Homo sapiens) (UniProt O43293); settings: Compound concentration 1000.0 nM
[33] = target: Tyrosine-protein kinase JAK2 (Homo sapiens) (UniProt O60674); settings: Compound concentration 1000.0 nM
[34] = target: Ephrin type-A receptor 6 (Homo sapiens) (UniProt Q9UF33); settings: Compound concentration 1000.0 nM
[35] = target: Ribosomal protein S6 kinase alpha-1 (Homo sapiens) (UniProt Q15418); settings: Compound concentration 1000.0 nM
Sequence of Ribosomal protein S6 kinase alpha-1 (Homo sapiens) (Q15418 whole entry): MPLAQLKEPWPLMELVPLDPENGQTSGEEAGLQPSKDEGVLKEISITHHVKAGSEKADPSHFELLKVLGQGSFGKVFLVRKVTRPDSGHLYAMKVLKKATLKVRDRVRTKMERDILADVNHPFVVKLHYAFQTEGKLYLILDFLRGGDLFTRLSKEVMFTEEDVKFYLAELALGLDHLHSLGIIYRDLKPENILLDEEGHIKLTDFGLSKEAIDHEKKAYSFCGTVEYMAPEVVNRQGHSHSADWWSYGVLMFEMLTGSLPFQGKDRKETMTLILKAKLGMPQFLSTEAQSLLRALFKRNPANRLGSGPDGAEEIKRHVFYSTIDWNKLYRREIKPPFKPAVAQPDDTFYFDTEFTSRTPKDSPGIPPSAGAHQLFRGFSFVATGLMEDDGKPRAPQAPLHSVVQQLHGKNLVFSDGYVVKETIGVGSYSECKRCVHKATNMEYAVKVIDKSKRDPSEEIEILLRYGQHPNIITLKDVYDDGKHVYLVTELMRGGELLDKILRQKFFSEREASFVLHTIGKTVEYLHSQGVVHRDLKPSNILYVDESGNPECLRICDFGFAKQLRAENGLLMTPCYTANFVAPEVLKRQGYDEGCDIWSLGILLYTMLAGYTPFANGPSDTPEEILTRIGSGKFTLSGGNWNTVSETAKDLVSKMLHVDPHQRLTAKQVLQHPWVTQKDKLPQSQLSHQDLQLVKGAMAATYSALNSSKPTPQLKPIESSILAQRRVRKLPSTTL

[36] = target: Transient receptor potential cation channel subfamily M member 6 (Homo sapiens) (UniProt Q9BX84); settings: Compound concentration 1000.0 nM
[37] = tested on: Tyrosine-protein kinase ABL1 (Homo sapiens), P00519 [Q252H]; settings: Compound concentration 1000.0 nM
[38] = target: Serine/threonine-protein kinase ULK1 (Homo sapiens) (UniProt O75385); settings: Compound concentration 1000.0 nM
Sequence of Serine/threonine-protein kinase ULK1 (Homo sapiens) (O75385 whole entry): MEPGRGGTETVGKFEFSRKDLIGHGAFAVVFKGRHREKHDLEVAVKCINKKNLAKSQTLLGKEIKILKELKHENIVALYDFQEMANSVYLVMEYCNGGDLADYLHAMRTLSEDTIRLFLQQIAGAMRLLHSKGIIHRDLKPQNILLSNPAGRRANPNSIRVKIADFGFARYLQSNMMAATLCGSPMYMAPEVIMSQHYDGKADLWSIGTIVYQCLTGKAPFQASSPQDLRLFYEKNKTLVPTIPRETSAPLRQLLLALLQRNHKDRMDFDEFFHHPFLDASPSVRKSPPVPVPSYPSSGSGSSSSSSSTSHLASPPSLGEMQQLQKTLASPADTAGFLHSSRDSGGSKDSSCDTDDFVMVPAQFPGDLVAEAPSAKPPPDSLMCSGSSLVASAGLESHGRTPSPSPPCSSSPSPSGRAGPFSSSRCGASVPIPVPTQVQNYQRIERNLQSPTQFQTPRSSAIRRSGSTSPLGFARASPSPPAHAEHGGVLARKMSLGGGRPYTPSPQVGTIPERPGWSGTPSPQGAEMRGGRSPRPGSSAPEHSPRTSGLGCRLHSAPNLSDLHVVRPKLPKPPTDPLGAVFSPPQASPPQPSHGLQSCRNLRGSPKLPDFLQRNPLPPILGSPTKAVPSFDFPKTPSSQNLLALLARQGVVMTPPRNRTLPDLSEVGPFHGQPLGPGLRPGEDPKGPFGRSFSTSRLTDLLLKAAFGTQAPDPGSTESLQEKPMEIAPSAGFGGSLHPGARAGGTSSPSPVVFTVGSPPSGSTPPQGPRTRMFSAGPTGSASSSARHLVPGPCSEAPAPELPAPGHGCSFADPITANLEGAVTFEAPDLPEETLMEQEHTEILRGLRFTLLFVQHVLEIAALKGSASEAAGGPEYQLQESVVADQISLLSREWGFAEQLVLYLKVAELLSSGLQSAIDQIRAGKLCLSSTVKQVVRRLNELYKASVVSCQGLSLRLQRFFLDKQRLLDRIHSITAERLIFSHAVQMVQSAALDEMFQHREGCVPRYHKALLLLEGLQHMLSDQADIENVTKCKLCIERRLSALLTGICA

[39] = target: Receptor tyrosine-protein kinase erbB-2 (Homo sapiens) (UniProt P04626); settings: Compound concentration 1000.0 nM
[40] = target: Alpha-2A adrenergic receptor (Homo sapiens) (UniProt P08913); settings: Compound concentration 10.0 uM
[41] = target: Phosphatidylinositol 4-phosphate 5-kinase type-1 alpha (Homo sapiens) (UniProt Q99755); settings: Compound concentration 1000.0 nM
[42] = target: Bone morphogenetic protein receptor type-2 (Homo sapiens) (UniProt Q13873); settings: Compound concentration 1000.0 nM
[43] = target: Glycogen synthase kinase-3 alpha (Homo sapiens) (UniProt P49840); settings: Compound concentration 1000.0 nM
Sequence of Glycogen synthase kinase-3 alpha (Homo sapiens) (P49840 2-483 limits assumed): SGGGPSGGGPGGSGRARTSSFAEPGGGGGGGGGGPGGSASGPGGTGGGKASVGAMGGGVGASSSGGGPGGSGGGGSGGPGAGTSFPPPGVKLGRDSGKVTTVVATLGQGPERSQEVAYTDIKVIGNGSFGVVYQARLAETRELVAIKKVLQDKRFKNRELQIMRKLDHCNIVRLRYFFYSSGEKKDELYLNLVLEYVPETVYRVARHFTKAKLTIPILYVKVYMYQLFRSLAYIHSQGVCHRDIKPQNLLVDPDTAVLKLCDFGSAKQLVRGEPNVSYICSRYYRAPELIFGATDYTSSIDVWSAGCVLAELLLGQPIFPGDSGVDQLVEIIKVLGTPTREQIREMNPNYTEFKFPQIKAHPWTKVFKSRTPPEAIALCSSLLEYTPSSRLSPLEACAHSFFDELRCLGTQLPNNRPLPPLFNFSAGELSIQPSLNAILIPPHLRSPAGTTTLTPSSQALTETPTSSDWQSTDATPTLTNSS

[44] = target: Mitogen-activated protein kinase kinase kinase 6 (Homo sapiens) (UniProt O95382); settings: Compound concentration 1000.0 nM

Cc1cc(-n2nc(Cc3cc(F)cc(C(F)(F)F)c3)nc2C)ccc1C(N)=O [TP-024]
inactive: residual activity [1] 100% | residual activity [2] 97% | residual activity [3] 100% | residual activity [4] 100% | residual activity [5] 100% | residual activity [6] 100% | residual activity [7] 100% | residual activity [8] 100% | residual activity [9] 100% | residual activity [10] 96% | residual activity [11] 100% | residual activity [12] 100% | residual activity [13] 83% | inhibition [14] 12.8% | residual activity [15] 100% | inhibition [16] 0.37% | residual activity [17] 100% | inhibition [18] 3.15% | residual activity [19] 62% | residual activity [20] 100% | residual activity [21] 78% | residual activity [22] 100% | residual activity [23] 86% | residual activity [24] 90% | residual activity [25] 100% | residual activity [26] 95% | residual activity [27] 100% | residual activity [28] 100% | residual activity [29] 98% | residual activity [30] 100% | residual activity [31] 81% | residual activity [32] 87% | residual activity [33] 100% | residual activity [34] 100% | residual activity [35] 100% | residual activity [36] 100% | residual activity [37] 100% | residual activity [38] 100% | residual activity [39] 99% | inhibition [40] 8.93% | residual activity [41] 100% | residual activity [42] 100% | residual activity [43] 97% | residual activity [44] 100%

Cc1nc(Cc2cccc(C(F)(F)F)c2)sc1-c1ccc(C(N)=O)nc1 [TP-024n]
inactive: residual activity [1] 97% | residual activity [2] 100% | residual activity [3] 100% | residual activity [4] 80% | residual activity [5] 96% | residual activity [6] 100% | residual activity [7] 100% | residual activity [8] 92% | residual activity [9] 100% | residual activity [10] 59% | residual activity [11] 100% | residual activity [12] 98% | residual activity [13] 69% | inhibition [14] 14.8% | residual activity [15] 95% | inhibition [16] 5.75% | residual activity [17] 100% | inhibition [18] -5.68% | residual activity [20] 91% | residual activity [21] 99% | residual activity [22] 96% | residual activity [23] 73% | residual activity [24] 54% | residual activity [25] 100% | residual activity [26] 98% | residual activity [27] 88% | residual activity [28] 100% | residual activity [29] 100% | residual activity [30] 95% | residual activity [31] 75% | residual activity [32] 88% | residual activity [33] 100% | residual activity [34] 96% | residual activity [35] 79% | residual activity [36] 88% | residual activity [37] 100% | residual activity [38] 100% | residual activity [39] 100% | inhibition [40] 4.44% | residual activity [41] 100% | residual activity [42] 100% | residual activity [43] 82% | residual activity [44] 99%
active: residual activity [19] 49%
